Results from ChEMBL document CHEMBL1147075, “Immunotherapeutic activity of a conjugate of a Toll-like receptor 7 ligand” (Proc Natl Acad Sci U S A, 2007).
Active and inactive are the calls of the source. The calls are words filed in the database; no cut-off is given here.

Legend:
BMDM = experiment: Induction of cytokine release in mouse BMDM cells at 0.01 to 10 uM after 24 hrs by ELISA; assay type: functional, cell-based
Bacillus anthracis = experiment: Protection against Bacillus anthracis infection in A/J mouse; assay type: functional, organism-based

Question: Which Activity (BMDM) does the source give for `COCCOc1nc(N)c2nc(O)n(Cc3ccc(C=O)cc3)c2n1` here?
Answer: Its Activity is “Active”.

Question: What about the Activity (Bacillus anthracis) of the same molecule?
Answer: Its Activity is “inactive”.
